From patent publication US20050208528A1, “Enhancement of the stability of oligonucleotides comprising phosphorothioate linkages by addition of water-soluble antioxidants” (ISIS Pharmaceuticals, Inc., priority 2001, published 2005)
Counter-ions that a name gives are not always drawn. Like-named read-outs stand apart in the source and are kept apart here. Blank lines part the entries; values can stand above or below the compound they belong to. In the oligonucleotide strings, read from the 5' end, every base follows the letter of its sugar. An asterisk marks phosphorothioate; unmarked linkages are phosphodiester. Other units and linkages are bracketed, terminal groups are in braces. A string of capitals states the bases alone. d = 2'-deoxy (DNA)

Experiments:
ISIS 2302 [1] = assay: Long-term protection of creams by antioxidants, 40° C. for 1 month; format: physicochemical; parameters: full PS-content: unit: %; details: for full PS-content: cream, 0.03% ISIS 2302, 40° C. 1 month, LC/MS or SAX, no antioxidants 45.1, no excipients 91.3; for Protection against desulfurization (in words): bi-phasic cream formulation
Experimental: (§1) A cream formulation was prepared containing 5.0 g BRIJ 58 (polyoxyethylene[20]cetyl ether), 0.03% ISIS 2302 and different concentrations of phenolic antioxidants.

ISIS 2302 [2] = assay: Desulfurization in bi-phasic cream formulation with water-soluble and oil-soluble antioxidants, 40° C. for 6 days; format: physicochemical; details: for Full PS content (%): cream, 0.03% ISIS 2302, 40° C. 6 days, no additive 84.7
Experimental: The cream was heated at 40° C. for 6 days and the oligonucleotide was isolated by ethanol precipitation and analyzed for full PS content by SAX chromatography.

[3] = system: phosphorothioate oligonucleotide (ISIS-2302); assay: Desulfurization of phosphorothioate oligonucleotide in mono-phasic system with oil-soluble antioxidants (SAX chromatography); format: physicochemical; details: for Full PS content (area-% SAX): 0.5 g PEG-40-monostearate, 1.5 ml phosphate buffer pH 7.0, 1.5 mg ISIS-2302, 65° C. 20 hours, no antioxidants 51.0
Experimental: Polyethyleneglycol-40-monostearate (0.5 g), a water-soluble excipient which forms peroxides in the absence of antioxidants, was heated at 65° C. for 20 hours with 1.5 ml phosphate buffer, pH 7.0 and 1.5 mg phosphorothioate oligonucleotide (ISIS-2302) in the absence or presence of various oil-soluble antioxidants. Oligonucleotides were isolated by ethanol precipitation and phosphorothioate content was determined by strong anion exchange (SAX) chromatography.

ISIS 2302 [4] = assay: Desulfurization in bi-phasic cream formulation with oil-soluble antioxidants, 40° C. for 2 days; format: physicochemical; details: for Full PS content (%): 0.03% ISIS 2302, 0 mg gives 83.9; for Full PS content (%) / Protection of phosphorothioate oligonucleotides against desulfurization (in words): 40° C. 2 days; for Protection of phosphorothioate oligonucleotides against desulfurization (in words): biphasic cream
Experimental: as §1

ICAM-1 [5] = details: C8161 human melanoma cells; cited from earlier work
[6] = Crohn's disease, rheumatoid arthritis, psoriasis, ulcerative colitis, kidney transplant rejection models; cited from earlier work
HLA-A and HLA-B = details: versus HLA-A and HLA-B; cited from earlier work
ICAM-1 [7] = details: cited from earlier work
[8] = cited from earlier work
C8161 cells = details: experimental metastasis assay, cited from earlier work
[9] = 5 mg antioxidant in 100 g cream
[10] = 10 mg antioxidant in 100 g cream
[11] = 25 mg antioxidant in 100 g cream
[12] = 50 mg antioxidant in 100 g cream
[13] = 75 mg antioxidant in 100 g cream
[14] = 100 mg antioxidant in 100 g cream
[15] = cream with 0.03% ISIS 2302, before heating

- full PS-content (ISIS 2302 [1]; additive 0.01%): 61.2
- full PS-content (ISIS 2302 [1]; additive 0.05%): 71.6
- full PS-content (ISIS 2302 [1]; additive 0.2%): 72.5
- full PS-content (ISIS 2302 [1]; additive 0.8%): 86.7
Compound: O=S(=O)(O)CCS [2-MESA, Na salt, 2-mercaptoethanesulfonic acid]

- Full PS content (area-% SAX) ([3]; 5 mg additive): 93.4 area-% SAX
- Full PS content (%) (ISIS 2302 [2]; additive 11.0 mg): 79.0%
Compound: Cc1cccc(C(C)(C)C)c1O [2-t-butyl-6-methylphenol]

- Full PS content (%) (ISIS 2302 [4]; [9]): 85.8%
- Full PS content (%) (ISIS 2302 [4]; [10]): 82.1%
- Full PS content (%) (ISIS 2302 [4]; [11]): 80.1%
- Full PS content (%) (ISIS 2302 [4]; [12]): 85.4%
- Full PS content (%) (ISIS 2302 [4]; [13]): 84.4%
- Full PS content (%) (ISIS 2302 [4]; [14]): 85.2%
- Protection of phosphorothioate oligonucleotides against desulfurization (in words) (ISIS 2302 [4]): do not provide protection
- Full PS content (%) (ISIS 2302 [2]; additive 5.2 mg): 77.3%
Compound: Cc1cc(C(C)(C)C)c(O)c(C(C)(C)C)c1 [BHT, butylated hydroxytoluene]

- full PS-content (ISIS 2302 [1]; additive 0.01%): 9.6
- full PS-content (ISIS 2302 [1]; additive 0.05%): 49.4
- full PS-content (ISIS 2302 [1]; additive 0.2%): 50.9
- full PS-content (ISIS 2302 [1]; additive 0.8%): 80.1
- Protection against desulfurization (in words) (ISIS 2302 [1]): inhibited desulfurization
Compound: N[C@@H](CCC(=O)N[C@@H](CS)C(=O)NCC(=O)O)C(=O)O [Glutathione]

- full PS-content (ISIS 2302 [1]; additive 0.01%): 28.4
- full PS-content (ISIS 2302 [1]; additive 0.05%): 30.8
- full PS-content (ISIS 2302 [1]; additive 0.2%): 67.3
- full PS-content (ISIS 2302 [1]; additive 0.8%): 81.9
- Protection against desulfurization (in words) (ISIS 2302 [1]): inhibited desulfurization
- Full PS content (%) (ISIS 2302 [2]; additive 0.05 mg): 89.6%
- Full PS content (%) (ISIS 2302 [2]; additive 0.2 mg): 91.8%
- Full PS content (%) (ISIS 2302 [2]; additive 0.4 mg): 93.6%
- Full PS content (%) (ISIS 2302 [2]; additive 1.0 mg): 93.7%
- Full PS content (%) (ISIS 2302 [2]; additive 6.1 mg): 93.0%
- Full PS content (%) (ISIS 2302 [2]; additive 52.2 mg): 94.5%
Compound: N[C@@H](CS)C(=O)O [L-cysteine]

- Full PS content (%) (ISIS 2302 [2]; additive 7.5 mg): 84.8%
Compound: Vitamin E-TPGS

More lines, now with the values behind:

Compound: O=S(=O)([O-])c1ccc2[nH]c(S)nc2c1.[Na+] [2-MBSA]
- full PS-content (ISIS 2302 [1]; additive 0.01%): 78.7
- full PS-content (ISIS 2302 [1]; additive 0.05%): 95.2
- full PS-content (ISIS 2302 [1]; additive 0.2%): 96.1
- full PS-content (ISIS 2302 [1]; additive 0.8%): 95.7
- Protection against desulfurization (in words) (ISIS 2302 [1]): inhibited desulfurization
- Full PS content (%) (ISIS 2302 [2]; additive 4.8 mg): 95.5%

Compound: O=C(O)CCCCC1CCSS1 (stereo not drawn) [α-lipoic acid]
- full PS-content (ISIS 2302 [1]; additive 0.02%): 80.2
- full PS-content (ISIS 2302 [1]; additive 0.1%): 84.3
- full PS-content (ISIS 2302 [1]; additive 0.45%): 84.7
- full PS-content (ISIS 2302 [1]; additive 1.6%): 87.6
- Protection against desulfurization (in words) (ISIS 2302 [1]): inhibited desulfurization

Compound: ISIS 1939: 2′-deoxyoligonucleotide, phosphorothioate backbone, 5′-CCC-CCA-CCA-CTT-CCC-CTC-TC-3′ (SEQ ID NO:2), targeted to 3′-UTR of human ICAM-1 gene (antisense dC*dC*dC*dC*dC*dA*dC*dC*dA*dC*dT*dT*dC*dC*dC*dC*dT*dC*dT*dC)
- ICAM-1 expression (mRNA levels, northern blot) (ICAM-1 [5]): markedly reduced ICAM-1 expression

Compound: ISIS 2302: 2′-deoxyoligonucleotide, phosphorothioate backbone, 5′-GCC-CAA-GCT-GGC-ATC-CGT-CA-3′ (SEQ ID NO:1), targeted to 3′-UTR of human ICAM-1 gene (antisense GCCCAAGCTGGCATCCGTCA; DNA, all phosphorothioate, methylation of C not given here)
- Anti-inflammatory effects in animal testing [6]: strong anti-inflammatory effects
- Specificity for target ICAM-1 over other potential nucleic acid targets (HLA-A and HLA-B): demonstrated specificity for its target ICAM-1
- phosphorothioate content of the cream prior to heating (ISIS 2302 [4]; [15]): 95%
- ICAM-1 expression (ICAM-1 [7]; human epidermal carcinoma cells (A431)): inhibit ICAM-1 expression
- ICAM-1 expression (ICAM-1 [7]; human keratinocytes): inhibit ICAM-1 expression
- ICAM-1 expression (ICAM-1 [7]; human lung carcinoma cells (A549)): inhibit ICAM-1 expression
- ICAM-1 expression (ICAM-1 [7]; human umbilical vein cells): inhibit ICAM-1 expression
- Activity against Crohn's disease ([8]; humans): activity against Crohn's disease
- Safety in humans ([8]; in vivo): good safety
- Steroid-sparing effect ([8]; treated human subjects, five months post-treatment weaned from steroids and in remission): statistically significant steroid-sparing effect
- ICAM-1 expression (mRNA levels, northern blot) (ICAM-1 [5]): markedly reduced ICAM-1 expression
- Enhanced metastatic ability of C8161 cells resulting from TNF-α treatment (C8161 cells; TNF-α treated cells): eliminated the enhanced metastatic ability
- Metastatic potential of C8161 cells (C8161 cells): decreased the metastatic potential
- PS content of the cream prior to heating (ISIS 2302 [2]; [15]): about 95%

Compound: Vitamin E
- Full PS content (area-% SAX) ([3]; 15 mg additive): 89.7 area-% SAX
- Protection of phosphorothioate oligonucleotide against desulfurization (in words) ([3]; mono-phasic system): inhibit desulfurization
- Full PS content (%) (ISIS 2302 [4]; [9]): 84.0%
- Full PS content (%) (ISIS 2302 [4]; [10]): 81.9%
- Full PS content (%) (ISIS 2302 [4]; [11]): 80.6%
- Full PS content (%) (ISIS 2302 [4]; [12]): 78.6%
- Full PS content (%) (ISIS 2302 [4]; [13]): 78.7%
- Full PS content (%) (ISIS 2302 [4]; [14]): 76.3%
- Protection of phosphorothioate oligonucleotides against desulfurization (in words) (ISIS 2302 [4]): do not provide protection
- Full PS content (%) (ISIS 2302 [2]; additive 7.4 mg): 83.7%
- Protection from desulfurization (in words) (ISIS 2302 [2]; bi-phasic cream formulation): ineffective
